Data reported in publication PMC5760531, “Action Potential Recording and Pro-arrhythmia Risk Analysis in Human Ventricular Trabeculae” (Frontiers in Physiology, 2018).
Where “and” joins values, the source holds several entries; their conditions need not be identical. Equal values may be shown once.

Assays:
[1] = test system: human ventricular trabeculae; test: Action potential recording and pro-arrhythmic score analysis in human ventricular trabeculae (hVT);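 also: sharp microelectrode action potential recordings at 37°C in Tyrode-perfused trabeculae, 4 cumulative concentrations each applied 31 min, values averaged over last 30 APs, vehicle 0.1% DMSO as control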
Procedure: Briefly, the human heart was transferred into a dissection vessel containing a cold (4°C), fresh proprietary dissection solution. The heart was maintained completely submerged in dissection solution. Ventricular trabeculae were dissected and transferred to the recording chamber.
Briefly, a single tissue was mounted into the experimental chamber filled with oxygenated Tyrode's external solution. The temperature of the solution was maintained at 37°C with flow rate at 5 mL per minute. The tissue was allowed to equilibrate for 30–60 min with stimulation (3 V, 3 ms) at a frequency of 1.0 Hz. High impedance borosilicate microelectrodes were prepared with a tip resistance of 10–20 MΩ once filled with 3 M KCl. Upon tissue impalement, the membrane potential was allowed to stabilize (typically, around −85 mV). Tissues with resting membrane potentials more positive than −75 mV were rejected. Bipolar stimulation at 1.5x threshold was applied and recordings were performed in continuous mode with sampling at 20 kHz using ADInstruments and LabChart Software.
Interruption of perfusion/oxygenation; (2). Absence of Aps following stimulation at baseline; (3). Time frame of drug exposure not respected; (4). Unstable response to stimulation at baseline; (5). Resting membrane potential (RMP) > −75 mV; 7). Maximal amplitude of AP (AMAX) <70 mV; 8). AP duration at 90% repolarization (APD90) <200 ms or >450 ms.
Experimental Procedure: Each test article was evaluated at 4 concentrations in 4 ventricular trabeculae derived from a minimum of 2 donor hearts. Testing concentrations were chosen based upon human free ETPC, aiming to cover 1–100-fold of human free ETPC. […] Briefly, following stabilization of each tissue, APs were collected and assessed for 31 min in vehicle control solution (Tyrode with 0.1% DMSO) at stimulation frequencies of 1 Hz for 25 min, 2 Hz for 3 min and then 1 Hz for 3 min. Following this vehicle control period, 4 concentrations of a test compound were applied sequentially and cumulatively. Each concentration was applied for 31 min with the same stimulation sequence as in vehicle controls.
For each frequency tested, the last 30 APs acquired at the end of the period were averaged for vehicle controls and for each test article concentration. Analysis at 1 Hz included only the last 30 APs of the initial 25-min incubation period. The following AP parameters and pro-arrhythmia variables were analyzed offline upon the completion of recordings:
• RMP (mV) • AMAX (mV) • AP duration at percent repolarization (APD20, APD30, APD50, APD60, APD90) (ms) • Short term variability analysis of AP duration (STV): Beat-to-beat variability of repolarization was quantified as STV from APD90 Poincare plots over a period of 30 sec.
Compound effects were quantified relative to the data collected during the vehicle control period (see Figure 1). […] Additionally, based on AnaBios historical data, threshold values for changes over baseline control for AP instability, APD alternans, Maximum APD dispersion and ERP (APD) were based upon an effect level of 10%. When applicable, differences were tested for statistical significance using the unpaired Student's t-test. A value of P < 0.05 was considered significant.
AP parameters and pro-arrhythmia variables were combined into a meaningful, single score to assess the pro-arrhythmic risk of a compound at each concentration tested. The pro-arrhythmic potential of compounds at 1 or 2 Hz was determined by assigning a weighted scale to each variable (Table 1).

[2] = test system: human ventricular trabeculae; set-up: method as in Page et al., 2016; conditions: 0.1 uM; ref Page et al., 2016; cited from earlier work
[3] = human free (unbound) effective therapeutic plasma concentration used to calculate multiples; cited from earlier work
hERG = conditions: ref Rampe et al., 1998; Qu and Vargas, 2015; cited from earlier work
[4] = 1Hz, c1-c4: 1.5-, 5-, 15-, 150-FOLD free ETPC (0.002µM)
[5] = 2Hz, c1-c4: 1.5-, 5-, 15-, 150-FOLD free ETPC (0.002µM)
[6] = average raw data, 1Hz, c2-c5: 1.5-, 5-, 15-, 150-FOLD free ETPC (0.002µM)
[7] = average raw data, 2Hz, c2-c5: 1.5-, 5-, 15-, 150-FOLD free ETPC (0.002µM)
[8] = 1Hz, 1.5-FOLD free ETPC (0.002µM)
[9] = 1Hz, 15-FOLD free ETPC (0.002µM)
[10] = 1Hz, 150-FOLD free ETPC (0.002µM)
[11] = 1Hz, 1500-FOLD free ETPC (0.002µM)
[12] = 2Hz, 1.5-FOLD free ETPC (0.002µM)
[13] = 2Hz, 15-FOLD free ETPC (0.002µM)
[14] = 2Hz, 150-FOLD free ETPC (0.002µM)
[15] = 2Hz, 1500-FOLD free ETPC (0.002µM)
[16] = average raw data, 1Hz, c2-c5: 1.5-, 15-, 150-, 1500-FOLD free ETPC (0.002µM)

For `CN(CCOc1ccc(NS(C)(=O)=O)cc1)CCc1ccc(NS(C)(=O)=O)cc1` [DOFETILIDE, Dofetilide], the EAD ([1]; 0.003, 0.01, 0.03, and 0.3 μM, total of 4 trabeculae) was “without any EAD”, the “Beat Escape incidence” value [1, 4] was 0% and the EADs incidence [1, 4] was 0%. The “Refractoriness Escape incidence” value [1, 4] was 0%, the EADs incidence [1, 5] was 0% and the “Refractoriness Escape incidence” value [1, 5] was 0%. The AMAX [1, 6] was 106 mV and 107 mV, the APD90 [1, 6] was 274 ms and 303 ms and 385 ms and 510 ms and the “Beat Escape” value [1, 6] was 0. For the same molecule, the EADs [1, 6] was 0, the ERP [1, 6] was 0.43 and 0.47 and 0.52 and 0.59 and the “Refractoriness Escape” value [1, 6] was 0. For the same molecule, the AMAX [1, 7] was 102 mV and 100 mV and 101 mV, the APD90 [1, 7] was 216 ms and 251 ms and 296 ms and 411 ms and the EADs [1, 7] was 0. For the same molecule, the ERP [1, 7] was 0.44 and 0.49 and 0.52 and 0.56, the “Refractoriness Escape” value [1, 7] was 0 and the APD90 prolongation [2] was ~ 100%.
With `O=C1NCCN1CCN1CCC(c2cn(-c3ccc(F)cc3)c3ccc(Cl)cc23)CC1` [SERTINDOLE, Sertindole] the “AMAX percentage change compared to vehicle control” value (from here on “AMAX percentage change”) [1, 8] was 5%, the “APD30 percentage change compared to vehicle control” value (from here on “APD30 percentage change”) [1, 8] was 6% and the “APD50 percentage change compared to vehicle control” value (shortened to “APD50 percentage change”) [1, 8] was 6%. For the same molecule, the “APD90 percentage change compared to vehicle control” value (“APD90 percentage change” below) [1, 8] was 5%, the “Alternans percentage change compared to vehicle control” value (from here on “Alternans percentage change”) [1, 8] was 54% and the “Beat Escape percentage change compared to vehicle control” value (shortened to “Beat Escape percentage change”) [1, 8] was 0%. The “EADs percentage change compared to vehicle control” value (from here on “EADs percentage change”) [1, 8] was 0%, the “ERP percentage change compared to vehicle control” value (from here on “ERP percentage change”) [1, 8] was 1% and the “Max Dispersion percentage change compared to vehicle control” value (“Max Dispersion percentage change” for short) [1, 8] was -15%. For the same molecule, the “RMP percentage change compared to vehicle control” value (“RMP percentage change” below) [1, 8] was 1%, the “Refractoriness Escape percentage change compared to vehicle control” value (“Refractoriness Escape percentage change” below) [1, 8] was 0% and the “STV percentage change compared to vehicle control” value (from here on “STV percentage change”) [1, 8] was 31%. For the same molecule, the “Triangulation percentage change compared to vehicle control” value (“Triangulation percentage change” for short) [1, 8] was 4%, the “AMAX percentage change” value [1, 9] was 5% and the “APD30 percentage change” value [1, 9] was -1%. For the same molecule, the “APD50 percentage change” value [1, 9] was 0%, the “APD90 percentage change” value [1, 9] was 0% and the “Alternans percentage change” value [1, 9] was -5%. For the same molecule, the “Beat Escape percentage change” value [1, 9] was 0%, the “EADs percentage change” value [1, 9] was 0% and the “ERP percentage change” value [1, 9] was 3%. For the same molecule, the “Max Dispersion percentage change” value [1, 9] was -35%, the “RMP percentage change” value [1, 9] was 3% and the “Refractoriness Escape percentage change” value [1, 9] was 0%. For the same molecule, the “STV percentage change” value [1, 9] was 0%, the “Triangulation percentage change” value [1, 9] was 3% and the “AMAX percentage change” value [1, 10] was 5%. The “APD30 percentage change” value [1, 10] was 4%, the “APD50 percentage change” value [1, 10] was 6% and the “APD90 percentage change” value [1, 10] was 7%. The “Alternans percentage change” value [1, 10] was 31%, the “Beat Escape percentage change” value [1, 10] was 0% and the “EADs percentage change” value [1, 10] was 0%. For the same molecule, the “ERP percentage change” value [1, 10] was 7%, the “Max Dispersion percentage change” value [1, 10] was -3% and the “RMP percentage change” value [1, 10] was 2%. The “Refractoriness Escape percentage change” value [1, 10] was 0%, the “STV percentage change” value [1, 10] was 23% and the “Triangulation percentage change” value [1, 10] was 12%. The “AMAX percentage change” value [1, 11] was 4%, the “APD30 percentage change” value [1, 11] was 1% and the “APD50 percentage change” value [1, 11] was 6%. For the same molecule, the “APD90 percentage change” value [1, 11] was 8%, the “Alternans percentage change” value [1, 11] was -12% and the “Beat Escape percentage change” value [1, 11] was 0%. The “EADs percentage change” value [1, 11] was 0%, the “ERP percentage change” value [1, 11] was 13% and the “Max Dispersion percentage change” value [1, 11] was -30%. The “RMP percentage change” value [1, 11] was 3%, the “Refractoriness Escape percentage change” value [1, 11] was 0% and the “STV percentage change” value [1, 11] was -24%. The “Triangulation percentage change” value [1, 11] was 19%, the AMAX [1, 12] was 109 and the “AMAX percentage change” value [1, 12] was 3%. The APD30 [1, 12] was 104, the “APD30 percentage change” value [1, 12] was -1% and the APD50 [1, 12] was 139. The “APD50 percentage change” value [1, 12] was 0%, the APD90 [1, 12] was 197 and the “APD90 percentage change” value [1, 12] was 0%. For the same molecule, the Alternans [1, 12] was 1.61, the “Alternans percentage change” value [1, 12] was 93% and the “Beat Escape” value [1, 12] was 0. The “Beat Escape percentage change” value [1, 12] was 0%, the EADs [1, 12] was 0 and the “EADs percentage change” value [1, 12] was 0%. For the same molecule, the ERP [1, 12] was 0.43, the “ERP percentage change” value [1, 12] was 2% and the “Max Dispersion” value [1, 12] was 4.87. The “Max Dispersion percentage change” value [1, 12] was 7%, the RMP [1, 12] was -85 and the “RMP percentage change” value [1, 12] was 1%. For the same molecule, the “Refractoriness Escape” value [1, 12] was 0, the “Refractoriness Escape percentage change” value [1, 12] was 0% and the STV [1, 12] was 1.20. For the same molecule, the Triangulation [1, 12] was 93, the “Triangulation percentage change” value [1, 12] was 1% and the AMAX [1, 13] was 110. The “AMAX percentage change” value [1, 13] was 4%, the APD30 [1, 13] was 104 and the “APD30 percentage change” value [1, 13] was -1%. For the same molecule, the APD50 [1, 13] was 139, the “APD50 percentage change” value [1, 13] was 0% and the APD90 [1, 13] was 199. For the same molecule, the “APD90 percentage change” value [1, 13] was 1%, the Alternans [1, 13] was 0.69 and the “Alternans percentage change” value [1, 13] was -17%. The “Beat Escape” value [1, 13] was 0, the “Beat Escape percentage change” value [1, 13] was 0% and the EADs [1, 13] was 0. The “EADs percentage change” value [1, 13] was 0%, the ERP [1, 13] was 0.44 and the “ERP percentage change” value [1, 13] was 4%. The “Max Dispersion” value [1, 13] was 3.50, the “Max Dispersion percentage change” value [1, 13] was -23% and the RMP [1, 13] was -87. The “RMP percentage change” value [1, 13] was 3%, the “Refractoriness Escape” value [1, 13] was 0 and the “Refractoriness Escape percentage change” value [1, 13] was 0%. For the same molecule, the STV [1, 13] was 0.48, the Triangulation [1, 13] was 95 and the “Triangulation percentage change” value [1, 13] was 3%. The AMAX [1, 14] was 110, the “AMAX percentage change” value [1, 14] was 5% and the APD30 [1, 14] was 112. The “APD30 percentage change” value [1, 14] was 6%, the APD50 [1, 14] was 150 and the “APD50 percentage change” value [1, 14] was 8%. For the same molecule, the APD90 [1, 14] was 214, the “APD90 percentage change” value [1, 14] was 9% and the “Alternans percentage change” value [1, 14] was 30%. The “Beat Escape” value [1, 14] was 0, the “Beat Escape percentage change” value [1, 14] was 0% and the EADs [1, 14] was 0. For the same molecule, the “EADs percentage change” value [1, 14] was 0%, the ERP [1, 14] was 0.45 and the “ERP percentage change” value [1, 14] was 7%. The “Max Dispersion” value [1, 14] was 3.78, the “Max Dispersion percentage change” value [1, 14] was -17% and the RMP [1, 14] was -87. For the same molecule, the “RMP percentage change” value [1, 14] was 3%, the “Refractoriness Escape” value [1, 14] was 0 and the “Refractoriness Escape percentage change” value [1, 14] was 0%. The STV [1, 14] was 0.78, the Triangulation [1, 14] was 103 and the “Triangulation percentage change” value [1, 14] was 12%. The AMAX [1, 15] was 110, the “AMAX percentage change” value [1, 15] was 4% and the APD30 [1, 15] was 107. The “APD30 percentage change” value [1, 15] was 1%, the APD50 [1, 15] was 150 and the “APD50 percentage change” value [1, 15] was 8%. For the same molecule, the APD90 [1, 15] was 221, the “APD90 percentage change” value [1, 15] was 12% and the Alternans [1, 15] was 0.59. The “Alternans percentage change” value [1, 15] was -29%, the “Beat Escape” value [1, 15] was 0 and the “Beat Escape percentage change” value [1, 15] was 0%. The EADs [1, 15] was 0, the “EADs percentage change” value [1, 15] was 0% and the ERP [1, 15] was 0.48. For the same molecule, the “ERP percentage change” value [1, 15] was 13%, the “Max Dispersion” value [1, 15] was 2.80 and the “Max Dispersion percentage change” value [1, 15] was -39%. For the same molecule, the RMP [1, 15] was -87, the “RMP percentage change” value [1, 15] was 3% and the “Refractoriness Escape” value [1, 15] was 0. The “Refractoriness Escape percentage change” value [1, 15] was 0%, the STV [1, 15] was 0.42 and the Triangulation [1, 15] was 114. For the same molecule, the “Triangulation percentage change” value [1, 15] was 23%, the “TdP identification by pro-arrhythmic score” value ([1]; at 10-fold human free ETPC, score >10 unsafe, <10 safe) was “TdP negative” and the AMAX [1, 16] was 112 mV and 111 mV. For the same molecule, the APD30 [1, 16] was 159 ms and 150 ms and 158 ms and 153 ms, the APD50 [1, 16] was 205 ms and 195 ms and 207 ms and 206 ms and the APD90 [1, 16] was 272 ms and 261 ms and 279 ms and 282 ms. The Alternans [1, 16] was 0.83 and 0.51 and 0.71 and 0.47, the “Beat Escape” value [1, 16] was 0 and the EADs [1, 16] was 0. For the same molecule, the ERP [1, 16] was 0.41 and 0.42 and 0.44 and 0.46, the “Max Dispersion” value [1, 16] was 3.13 and 2.38 and 3.55 and 2.58 and the “Refractoriness Escape” value [1, 16] was 0. For the same molecule, the STV [1, 16] was 0.54 and 0.39 and 0.47 and 0.31, the Triangulation [1, 16] was 113 and 111 and 121 and 129 and the “Free ETPC” value [3] was 0.002 µM. The “hERG IC50” value (hERG) was “sub-micromolar”.
